Data: ChEMBL document CHEMBL1130555, “Synthesis and biological activity of novel 3-trifluoromethyl taxoids” (Bioorg Med Chem Lett, 1997)

Legend:
Type in all cases: functional, cell-based
[1] = test system: MCF7; assay: Cytotoxicity was evaluated against MCF-7 mammary carcinoma human breast cancer cell line
[2] = test system: A549; assay: Cytotoxicity was evaluated against A549 non-small cell lung carcinoma human cancer cell line
[3] = test system: HT-29; assay: Cytotoxicity was evaluated against HT-29 colon carcinoma human cancer cell line
[4] = test system: A121; assay: Cytotoxicity was evaluated against A121 ovarian carcinoma human cancer cell line
[5] = test system: MCF7R; assay: Cytotoxicity was evaluated against MCF7-R (mammary carcinoma 180-fold resistant to doxorubicin, expressing MDR phenotype) human breast cancer cell line

| SMILES | IC50 [1] | IC50 [2] | IC50 [3] | IC50 [4] | IC50 [5] |
| --- | --- | --- | --- | --- | --- |
| CCC(=O)O[C@H]1C(=O)[C@@]2(C)[C@H]([C@H](OC(=O)c3ccccc3)[C@]3(O)C[C@H](OC(=O)[C@H](O)[C@@H](NC(=O)OC(C)(C)C)C(F)(F)F)C(C)=C1C3(C)C)[C@]1(OC(C)=O)CO[C@@H]1C[C@@H]2O | 0.3 nM | 0.3 nM | 0.4 nM | 0.3 nM | 14 nM |
| CC(=O)O[C@@]12CO[C@@H]1C[C@H](O)[C@@]1(C)C(=O)[C@H](OC(=O)C3CC3)C3=C(C)[C@@H](OC(=O)[C@H](O)[C@@H](NC(=O)OC(C)(C)C)C(F)(F)F)C[C@@](O)([C@@H](OC(=O)c4ccccc4)[C@H]21)C3(C)C | 0.5 nM | 0.4 nM | 0.5 nM | 0.4 nM | 16 nM |
| COC(=O)O[C@H]1C(=O)[C@@]2(C)[C@H]([C@H](OC(=O)c3ccccc3)[C@]3(O)C[C@H](OC(=O)[C@H](O)[C@@H](NC(=O)OC(C)(C)C)C(F)(F)F)C(C)=C1C3(C)C)[C@]1(OC(C)=O)CO[C@@H]1C[C@@H]2O | 0.4 nM | 0.2 nM | 0.4 nM | 0.3 nM | 21 nM |
| CC(=O)O[C@@]12CO[C@@H]1C[C@H](O)[C@@]1(C)C(=O)[C@H](O)C3=C(C)[C@@H](OC(=O)[C@H](O)[C@@H](NC(=O)OC(C)(C)C)C(F)(F)F)C[C@@](O)([C@@H](OC(=O)c4ccccc4)[C@H]21)C3(C)C | 0.44 nM | 0.44 nM | 0.65 nM | 1.15 nM | 156 nM |
| CC(=O)O[C@H]1C(=O)[C@@]2(C)[C@H]([C@H](OC(=O)c3ccccc3)[C@]3(O)C[C@H](OC(=O)[C@H](O)[C@@H](NC(=O)OC(C)(C)C)C(F)(F)F)C(C)=C1C3(C)C)[C@]1(OC(C)=O)CO[C@@H]1C[C@@H]2O | 0.6 nM | 0.2 nM | 0.4 nM | 0.3 nM | 156 nM |
| CCCCC(=O)O[C@H]1C(=O)[C@@]2(C)[C@H]([C@H](OC(=O)c3ccccc3)[C@]3(O)C[C@H](OC(=O)[C@H](O)[C@@H](NC(=O)OC(C)(C)C)C(F)(F)F)C(C)=C1C3(C)C)[C@]1(OC(C)=O)CO[C@@H]1C[C@@H]2O | 0.7 nM | 0.8 nM | 1.4 nM | 0.7 nM | 26 nM |
| CC(=O)O[C@@]12CO[C@@H]1C[C@H](O)[C@@]1(C)C(=O)[C@H](OC(=O)CC(C)(C)C)C3=C(C)[C@@H](OC(=O)[C@H](O)[C@@H](NC(=O)OC(C)(C)C)C(F)(F)F)C[C@@](O)([C@@H](OC(=O)c4ccccc4)[C@H]21)C3(C)C | 0.5 nM | 0.5 nM | 0.6 nM | 0.5 nM | 12 nM |
| CC(=O)O[C@@]12CO[C@@H]1C[C@H](O)[C@@]1(C)C(=O)[C@H](OC(=O)N3CCOCC3)C3=C(C)[C@@H](OC(=O)[C@H](O)[C@@H](NC(=O)OC(C)(C)C)C(F)(F)F)C[C@@](O)([C@@H](OC(=O)c4ccccc4)[C@H]21)C3(C)C | 0.4 nM | 0.4 nM | 0.4 nM | 0.5 nM | 48 nM |
| CC(=O)O[C@@]12CO[C@@H]1C[C@H](O)[C@@]1(C)C(=O)[C@H](OC(=O)N(C)C)C3=C(C)[C@@H](OC(=O)[C@H](O)[C@@H](NC(=O)OC(C)(C)C)C(F)(F)F)C[C@@](O)([C@@H](OC(=O)c4ccccc4)[C@H]21)C3(C)C | 0.6 nM | 0.2 nM | 0.4 nM | 0.3 nM | 17 nM |
